≈ marks a conversion by molar mass, not a printed value.
Experiments:
[1] = test system: Klebsiella pneumoniae; experiment: Antibacterial activity against Klebsiella pneumoniae ATCC BAA-2146 expressing NDM-1 by agar dilution method; type: functional
[2] = test system: Acinetobacter calcoaceticus; experiment: Antibacterial activity against Acinetobacter calcoaceticus ATCC 19606 by agar dilution method; type: functional
[3] = test system: Serratia marcescens; experiment: Antibacterial activity against Serratia marcescens 41002 by agar dilution method; type: functional
[4] = test system: Klebsiella pneumoniae; experiment: Antibacterial activity against extended-spectrum beta-lactamase-positive Klebsiella pneumoniae ATCC 700603 by agar dilution method; type: functional
[5] = test system: Staphylococcus aureus; experiment: Antibacterial activity against methicillin-resistant Staphylococcus aureus ATCC 33591 by agar dilution method; type: functional
[6] = test system: Pseudomonas aeruginosa; experiment: Antibacterial activity against Pseudomonas aeruginosa 09-14 by agar dilution method; type: functional
[7] = test system: Enterococcus faecalis; experiment: Antibacterial activity against vancomycin-resistant Enterococcus faecalis 09-9 by agar dilution method; type: functional
[8] = test system: Staphylococcus epidermidis; experiment: Antibacterial activity against methicillin-sensitive Staphylococcus epidermidis ATCC 12228 by agar dilution method; type: functional
[9] = test system: Klebsiella pneumoniae; experiment: Antibacterial activity against extended-spectrum beta-lactamase-negative Klebsiella pneumoniae 7 by agar dilution method; type: functional
[10] = test system: Providencia rettgeri; experiment: Antibacterial activity against Providencia rettgeri ATCC 31052 by agar dilution method; type: functional
[11] = test system: Citrobacter freundii; experiment: Antibacterial activity against Citrobacter freundii ATCC 43864 by agar dilution method; type: functional
[12] = test system: Escherichia coli; experiment: Antibacterial activity against extended-spectrum beta-lactamase-negative Escherichia coli 09-20 by agar dilution method; type: functional
[13] = test system: Enterococcus faecalis; experiment: Antibacterial activity against vancomycin-sensitive Enterococcus faecalis ATCC 29212 by agar dilution method; type: functional
[14] = test system: Enterococcus faecalis; experiment: Antibacterial activity against vancomycin-sensitive Enterococcus faecalis 09-8 by agar dilution method; type: functional
[15] = test system: Pseudomonas aeruginosa; experiment: Antibacterial activity against Pseudomonas aeruginosa ATCC 27853 by agar dilution method; type: functional
[16] = test system: Enterococcus faecium; experiment: Antibacterial activity against vancomycin-resistant Enterococcus faecium 05-8 by agar dilution method; type: functional
[17] = test system: Staphylococcus aureus; experiment: Antibacterial activity against methicillin-sensitive Staphylococcus aureus 09-6 by agar dilution method; type: functional
[18] = test system: Staphylococcus epidermidis; experiment: Antibacterial activity against methicillin-resistant Staphylococcus epidermidis 09-3 by agar dilution method; type: functional
[19] = test system: Escherichia coli; experiment: Antibacterial activity against extended-spectrum beta-lactamase-positive Escherichia coli 09-1 by agar dilution method; type: functional
[20] = test system: Salmonella typhi; experiment: Antibacterial activity against Salmonella typhi H901 by agar dilution method; type: functional, Salmonella enterica subsp. enterica serovar Typhi; conditions: Salmonella enterica
[21] = test system: Enterococcus faecium; experiment: Antibacterial activity against vancomycin-sensitive Enterococcus faecium 09-10 by agar dilution method; type: functional
[22] = test system: Proteus mirabilis; experiment: Antibacterial activity against Proteus mirabilis 09-1 by agar dilution method; type: functional
[23] = test system: Klebsiella pneumoniae; experiment: Antibacterial activity against extended-spectrum beta-lactamase-positive Klebsiella pneumoniae 09-25 by agar dilution method; type: functional
[24] = test system: Escherichia coli; experiment: Antibacterial activity against extended-spectrum beta-lactamase-negative Escherichia coli ATCC 25922 by agar dilution method; type: functional
[25] = test system: Escherichia coli; experiment: Antibacterial activity against extended-spectrum beta-lactamase-negative Escherichia coli 1515 by agar dilution method; type: functional
[26] = Cytotoxicity against HEK293T cells after 48 hrs by MTS assay; type: cell-based, HEK-293T; conditions: human
[27] = test system: Morganella morganii; experiment: Antibacterial activity against Morganella morganii ATCC 25830 by agar dilution method; type: functional
[28] = test system: Klebsiella pneumoniae; experiment: Antibacterial activity against extended-spectrum beta-lactamase-negative Klebsiella pneumoniae 09-8 by agar dilution method; type: functional
[29] = test system: Proteus vulgaris; experiment: Antibacterial activity against Proteus vulgaris ATCC 29905 by agar dilution method; type: functional
[30] = test system: Staphylococcus aureus; experiment: Antibacterial activity against methicillin-sensitive Staphylococcus aureus 15 by agar dilution method; type: functional
[31] = test system: Enterococcus faecalis; experiment: Antibacterial activity against vancomycin-resistant Enterococcus faecalis ATCC 51299 by agar dilution method; type: functional
[32] = test system: Staphylococcus aureus; experiment: Antibacterial activity against methicillin-resistant Staphylococcus aureus 09-13 by agar dilution method; type: functional
[33] = test system: Staphylococcus epidermidis; experiment: Antibacterial activity against methicillin-sensitive Staphylococcus epidermidis 09-9 by agar dilution method; type: functional
[34] = test system: Enterococcus faecium; experiment: Antibacterial activity against vancomycin-resistant Enterococcus faecium ATCC 700221 by agar dilution method; type: functional
[35] = test system: Staphylococcus aureus; experiment: Antibacterial activity against methicillin-sensitive Staphylococcus aureus ATCC 29213 by agar dilution method; type: functional
[36] = test system: Enterobacter cloacae; experiment: Antibacterial activity against Enterobacter cloacae 45301 by agar dilution method; type: functional
[37] = test system: Klebsiella aerogenes; experiment: Antibacterial activity against Enterobacter aerogenes 45102 by agar dilution method; type: functional
[38] = test system: Pseudomonas aeruginosa; experiment: Antibacterial activity against Pseudomonas aeruginosa PAO1 by agar dilution method; type: functional

Structure (SMILES) | MIC [1] [mg/L] | MIC [2] [mg/L] | MIC [3] [mg/L] | MIC [8] [mg/L] | MIC [10] [mg/L] | MIC [11] [mg/L] | MIC [13] [mg/L] | MIC [14] [mg/L] | MIC [17] [mg/L] | MIC [19] [mg/L] | MIC [21] [mg/L] | MIC [22] [mg/L] | MIC [23] [mg/L] | MIC [24] [mg/L] | MIC [27] [mg/L] | MIC [28] [mg/L] | MIC [29] [mg/L] | MIC [30] [mg/L] | MIC [33] [mg/L] | MIC [35] [mg/L] | also measured
CCCNC(=N)c1ccc2cc(-c3ccc(Oc4ccc(-c5cc6ccc(C(=N)NCCC)cc6[nH]5)cc4)cc3)[nH]c2c1 | > 128 | > 128 | > 128 | 8 (≈ 14.1 µM) | > 128 | > 128 | 16 (≈ 28.1 µM) | 16 (≈ 28.1 µM) | 16 (≈ 28.1 µM) | > 128 | 16 (≈ 28.1 µM) | > 128 | > 128 | > 128 | 128 (≈ 225 µM) | 128 (≈ 225 µM) | > 128 | 8 (≈ 14.1 µM) | 8 (≈ 14.1 µM) | 16 (≈ 28.1 µM) | MIC [4]: > 128 mg/L; MIC [5]: 16 mg/L (≈ 28.1 µM); MIC [6]: > 128 mg/L; MIC [7]: 16 mg/L (≈ 28.1 µM); MIC [9]: > 128 mg/L; MIC [12]: 128 mg/L (≈ 225 µM); MIC [15]: > 128 mg/L; MIC [16]: 16 mg/L (≈ 28.1 µM); MIC [18]: 2 mg/L (≈ 3.52 µM); MIC [20]: 128 mg/L (≈ 225 µM); MIC [25]: > 128 mg/L; CC50 at 48 h [26]: 26.2 mg/L (≈ 46.1 µM); MIC [31]: 16 mg/L (≈ 28.1 µM); MIC [32]: 16 mg/L (≈ 28.1 µM); MIC [34]: 2 to 16 mg/L (≈ 3.52 to 28.1 µM); MIC [36]: > 128 mg/L; MIC [37]: > 128 mg/L; MIC [38]: > 128 mg/L
CCC(CC)NC(=N)c1ccc2cc(-c3ccc(Oc4ccc(-c5cc6ccc(C(=N)NC(CC)CC)cc6[nH]5)cc4)cc3)[nH]c2c1 | 16 (≈ 25.6 µM) | 16 (≈ 25.6 µM) | 16 (≈ 25.6 µM) | 0.5 (≈ 0.8 µM) | 16 (≈ 25.6 µM) | 16 (≈ 25.6 µM) | 4 (≈ 6.4 µM) | 2 (≈ 3.2 µM) | 2 (≈ 3.2 µM) | 16 (≈ 25.6 µM) | 4 (≈ 6.4 µM) | 32 (≈ 51.2 µM) | 16 (≈ 25.6 µM) | 16 (≈ 25.6 µM) | 8 (≈ 12.8 µM) | 16 (≈ 25.6 µM) | 16 (≈ 25.6 µM) | 2 (≈ 3.2 µM) | 2 (≈ 3.2 µM) | 2 (≈ 3.2 µM) | MIC [4]: 16 mg/L (≈ 25.6 µM); MIC [5]: 2 mg/L (≈ 3.2 µM); MIC [6]: 32 mg/L (≈ 51.2 µM); MIC [7]: 8 mg/L (≈ 12.8 µM); MIC [9]: 16 mg/L (≈ 25.6 µM); MIC [12]: 16 mg/L (≈ 25.6 µM); MIC [15]: 16 mg/L (≈ 25.6 µM); MIC [16]: 4 mg/L (≈ 6.4 µM); MIC [18]: 1 mg/L (≈ 1.6 µM); MIC [20]: 16 mg/L (≈ 25.6 µM); MIC [25]: 32 mg/L (≈ 51.2 µM); CC50 at 48 h [26]: 25.4 mg/L (≈ 40.7 µM); MIC [31]: 4 mg/L (≈ 6.4 µM); MIC [32]: 2 mg/L (≈ 3.2 µM); MIC [34]: 2 mg/L (≈ 3.2 µM); MIC [36]: 16 mg/L (≈ 25.6 µM); MIC [37]: 16 mg/L (≈ 25.6 µM); MIC [38]: 32 mg/L (≈ 51.2 µM)
c1cc(-c2cc3ccc(C4=NCCN4)cc3[nH]2)ccc1Oc1ccc(-c2cc3ccc(C4=NCCN4)cc3[nH]2)cc1 | > 128 | > 128 | > 128 |  | > 128 | > 128 |  |  | 16 (≈ 29.8 µM) | > 128 | 8 (≈ 14.9 µM) | > 128 | > 128 | > 128 | > 128 | > 128 | > 128 | 8 (≈ 14.9 µM) | 2 (≈ 3.73 µM) | 16 (≈ 29.8 µM) | MIC [4]: > 128 mg/L; MIC [6]: > 128 mg/L; MIC [9]: > 128 mg/L; MIC [12]: > 128 mg/L; MIC [15]: > 128 mg/L; MIC [25]: > 128 mg/L; CC50 at 48 h [26]: 1.7 mg/L (≈ 3.17 µM); MIC [36]: > 128 mg/L; MIC [37]: > 128 mg/L; MIC [38]: > 128 mg/L
C[C@H]1COc2c(N3CCN(C)CC3)c(F)cc3c(=O)c(C(=O)O)cn1c23.C[C@H]1COc2c(N3CCN(C)CC3)c(F)cc3c(=O)c(C(=O)O)cn1c23.O [LEVOFLOXACIN] | > 128 | 0.25 | 0.25 | 0.25 | ≤ 0.03 | ≤ 0.03 | 0.5 | 1 | 0.25 | 16 | 64 | 2 | 4 | 0.03 to 0.06 | ≤ 0.03 | ≤ 0.03 | ≤ 0.03 | 0.125 | 8 | 0.125 | MIC [5]: 0.125 mg/L; MIC [7]: 128 mg/L; MIC [16]: 64 mg/L; MIC [18]: 8 mg/L; MIC [20]: ≤ 0.03 mg/L; MIC [31]: 0.5 mg/L; MIC [32]: 32 mg/L; MIC [34]: 64 mg/L; MIC [36]: 0.06 mg/L; MIC [37]: 0.06 mg/L
CN[C@H](CC(C)C)C(=O)N[C@H]1C(=O)N[C@@H](CC(N)=O)C(=O)N[C@H]2C(=O)N[C@H]3C(=O)N[C@H](C(=O)N[C@H](C(=O)O)c4cc(O)cc(O)c4-c4cc3ccc4O)[C@H](O)c3ccc(c(Cl)c3)Oc3cc2cc(c3O[C@@H]2O[C@H](CO)[C@@H](O)[C@H](O)[C@H]2O[C@H]2C[C@](C)(N)[C@H](O)[C@H](C)O2)Oc2ccc(cc2Cl)[C@H]1O [VANCOMYCIN] |  |  |  | 0.5 (≈ 0.345 µM) |  |  | 1 (≈ 0.69 µM) | 1 (≈ 0.69 µM) |  |  |  |  |  |  |  |  |  |  | 0.5 (≈ 0.345 µM) |  | 

From ChEMBL document CHEMBL4002623, “Synthesis and in vitro activity of dicationic indolyl diphenyl ethers as novel potent antibiotic agents against drug-resistant bacteria” (Bioorg Med Chem Lett, 2017)
